Experiments:
[1] = test system: Rhodococcus HPPD SEQ ID No. 19 (FMP23e); assay: biochemical; assay type: biochemical, Rhodococcus sp. (strain RHA1), isolate ro02040; conditions: SEQ ID No. 19
[2] = molecular target: (Rhodococcus jostii, UniProt Q0SF39); assay: HPLC assay of HPPD in vitro kinetic properties; assay type: biochemical, Rhodococcus sp. (strain RHA1), isolate ro02040
[3] = molecular target: Rhodococcus HPPD SEQ ID No. 19 (FMP23e); assay: HPLC assay of HPPD in vitro kinetic properties; assay type: biochemical, Rhodococcus sp. (strain RHA1), isolate ro02040; conditions: 2 mM HPP; SEQ ID No. 19
[4] = test system: tobacco calli containing HPPD SEQ ID No. 11 (Arabidopsis thaliana); assay: Rooting of calli on media with tembotrione; assay type: cell-based, Nicotiana tabacum; conditions: calli containing SEQ ID No. 11; 6 to 12 weeks
Procedure: (§1) The leaf disks were co-cultivated for 2 days with Agrobacterium tumefaciens cells containing either the binary vector FMP22ebv, FMP23ebv or AtHPPDbv. Then the leaf disks were transferred to a media allowing the regeneration of shoots for 6 weeks on MS (Musharige and Skoog, (1962), Physiol Plant 15(3): 473-497) media supplemented with BAP ([…]; Benzylaminopurine), carbenicillin ([…]), cefotaxine (250 mg/mL), kanamycin (75 mg/mL) and tembotrione (10^−6 M)
(§2) Regenerated calli were transferred on media to induce the development of roots for 6 to 12 weeks: MS (½), supplemented with carbenicillin (250 mg/mL), cefotaxine (250 mg/mL), kanamycin (75 mg/mL), and tembotrione (10^−6 M).
(§3) Regenerated shoot calli from a cell transformed with a nucleic acid sequence encoding an HPPD comprising SEQ ID No. 11 (Arabidopsis thaliana) SEQ ID No. 21 or SEQ ID No. 7 (Rhodococcus) were transferred to a media inducing root growth which media was further supplemented with the HPPD inhibitor tembotrione for 6 to 12 weeks.

[5] = test system: tobacco calli containing HPPD SEQ ID No. 21 (Rhodococcus); assay: Rooting of calli on media with tembotrione; assay type: cell-based, Nicotiana tabacum; conditions: calli containing SEQ ID No. 21; 6 to 12 weeks
Procedure: as §1, §2, §3

[6] = test system: tobacco calli containing HPPD SEQ ID No. 7 (Rhodococcus); assay: Rooting of calli on media with tembotrione; assay type: cell-based, Nicotiana tabacum; conditions: calli containing SEQ ID No. 7; 6 to 12 weeks
Procedure: as §1, §2, §3

[7] = test system: rice shoots containing FMP22e; assay: Bleaching of rice shoots on MS/2 with tembotrione; assay type: cell-based; conditions: 2 weeks
Procedure: (§4) Rice transformation is achieved using methods well known in the art. Briefly, the Agrobacterium tumefaciens mediated transformation of rice was performed using immature embryos, from the restorer line 6G4317. Briefly, panicles from donor plants were harvested 8-12 days after pollination. The lemma of the immature seed was removed. Seeds were thereafter sterilized using a NaOCl based solution and Tween. The seeds were preinduced with […]. Agrobacterium tumefaciens cells are then co-cultivated with the preinduced seeds in presence of acetosyringone for 4 days at 24° C. in the dark. Thereafter, coleoptile from embryos are removed and washed, then put on a media supplemented with phosphinothricin for 3 weeks at 28° C. under a photoperiod rhythm of 16 hours. Then the growing calli were cut off from the embryos, and transferred to fresh media containing triacillin, phosphinothricin, L-proline and copper (II) sulfate.
(§5) For each callusline and per Tembotrione concentration, 3 shoots, and randomly isolated from different callus pieces, were transferred to MS/2 with Tembotrione. As a general rule, transfer of the shoots from regeneration medium to MS/2 occurred 9 weeks after calli had been put on regeneration medium.
(§6) Cultures were incubated at 26.5° C. (16 hrs. photoperiod) and evaluation of symptoms occurred 2 weeks later.
(§7) New developing leaves of the shoots transferred have been scored on the basis of bleaching and categorized in 3 groups:
(§8) Within the category ‘intermediate bleaching’ a distinction has been made between shoots having new leaves showing only very little bleaching symptoms and thus tending to green leaves, and shoots with new leaves almost completely bleached.

[8] = test system: rice shoots containing FMP23e; assay: Bleaching of rice shoots on MS/2 with tembotrione; assay type: cell-based; conditions: 2 weeks
Procedure: as §4, §5, §6, §7, §8

[9] = molecular target: T1, Arabidopsis thaliana HPPD SEQ ID No. 10 (Arabidopsis thaliana, UniProt P93836); assay: HPLC assay of HPPD in vitro kinetic properties
T1 sequence (P93836 with tags, fused parts or gaps): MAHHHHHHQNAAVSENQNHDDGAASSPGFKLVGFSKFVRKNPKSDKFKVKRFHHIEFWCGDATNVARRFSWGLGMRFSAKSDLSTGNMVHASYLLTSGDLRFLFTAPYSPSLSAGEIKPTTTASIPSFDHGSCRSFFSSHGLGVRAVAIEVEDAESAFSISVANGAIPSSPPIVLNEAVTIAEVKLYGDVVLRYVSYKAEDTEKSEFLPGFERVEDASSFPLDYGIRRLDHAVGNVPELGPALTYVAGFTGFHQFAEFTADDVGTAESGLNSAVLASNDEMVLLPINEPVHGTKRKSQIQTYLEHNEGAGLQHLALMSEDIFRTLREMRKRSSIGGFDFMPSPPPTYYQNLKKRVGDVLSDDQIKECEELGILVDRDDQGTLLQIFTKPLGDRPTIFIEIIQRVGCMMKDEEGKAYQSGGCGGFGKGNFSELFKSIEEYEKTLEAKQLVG
Procedure: All assays were started by the addition of HPPD enzyme to the assay mixture and stopped at a series of times between 0 and 240 s by addition of 200 μl of the reaction mixture to reaction assay tubes containing 20 μl 10% perchloric acid. Precipitated protein was pelleted by a 5 minute centrifugation at 10,000 g. […] For Km and Vmax value determinations the initial rates of the HPPD reaction at different substrate concentrations were determined from plots of HGA formed versus time and fitted to the Michaelis-Menten equation for unireactant enzymes using the ID Business Solutions Ltd. (idbs.com) XLfit software suite.

[10] = test system: Rhodococcus HPPD SEQ ID No. 5 (FMP22e); assay: biochemical; assay type: biochemical, Rhodococcus sp. (strain RHA1), isolate ro03041; conditions: SEQ ID No. 5
[11] = test system: rice plants containing FMP23e; assay: Response to tembotrione in glasshouse trials, T0 rice; assay type: in vivo; conditions: 100 g AI/ha, 7 DAT
Procedure: (§9) T0 rooted plantlets (either selected on phosphinothricin alone or on phosphinothricin supplemented with tembotrione) were transferred to soil in the glasshouse. Following an acclimation period, sufficiently grown plants were treated with the different HPPD inhibitor herbicides. As an example, T0 plants were sprayed with tembotrione of formulation type WP20 100 g Al/ha supplemented with ammonium sulfate and methyl ester raps oil. Seven days after the spray application, the symptoms due to the application of the herbicide were evaluated and compared the symptoms observed on wild type plants submitted to the same treatment.
(§10) The plants were classified in three categories based on the phenotype developed in response to the herbicide seven days after the treatment.

[12] = test system: rice plants containing FMP22e; assay: as above; assay type: in vivo; conditions: 100 g AI/ha, 7 DAT
Procedure: as §9, §10

## CS(=O)(=O)c1ccc(C(=O)C2C(=O)CCCC2=O)c(Cl)c1COCC(F)(F)F [Tembotrione, 2-[2-chloro-4-(methylsulfonyl)-3-[(2,2,2,-tri-fluoroethoxy)methyl]benzoyl]-1,3-cyclo-hexanedione]
[1]; 2 mM HPP, 3 minutes incubation
  pI50: 5.1
[1]; 5.0 × 10^−6 M inhibitor
  percentage of inhibition compared to activity in absence of the inhibitor: 70%
[2]; read-out: k1 (Kon, association rate constant)
  kon: 3200 M⁻¹ s⁻¹
[2]; read-out: k−1 (Koff, enzyme-inhibitor complex dissociation)
  koff: 0.0063 s⁻¹
[3]
  Ki: 2000 nM
[4]
  root growth on media with tembotrione: On none of the events containing the HPPD defined by SEQ ID No. 11 (Arabidopsis thaliana) or none transformed calli, root growth was observed
[5]
  % Elongation & rooting on 10^−6 M tembotrione: 63%
  root growth on media with tembotrione: clearly developed numerous and healthy roots
[6]
  % Elongation & rooting on 10^−6 M tembotrione: 65%
  root growth on media with tembotrione: clearly developed numerous and healthy roots
[7]; 1 μM
  N° of shoots completely bleached: 14
  N° of shoots with intermediate bleaching: 9
  N° of shoots without bleaching: 35
[7]; 5 μM
  N° of shoots completely bleached: 16
  N° of shoots with intermediate bleaching: 38
  N° of shoots without bleaching: 6
[8]; 1 μM
  N° of shoots completely bleached: 14
  N° of shoots with intermediate bleaching: 5
  N° of shoots without bleaching: 39
[8]; 5 μM
  N° of shoots completely bleached: 25
  N° of shoots with intermediate bleaching: 20
[9]
  Ki: 15 nM
[10]; 2 mM HPP, 3 minutes incubation
  pI50: 5.3
[10]; 5.0 × 10^−6 M inhibitor
  percentage of inhibition compared to activity in absence of the inhibitor: 36%
[11]
  Class II (number of plants, temporary light injuries, injury: 10-40%): 10
  Class III (number of plants, strong injuries, injury: 41-100%): 7
[12]
  Class II (number of plants, temporary light injuries, injury: 10-40%): 19

— patent US8847018B2, “Plants tolerant to HPPD inhibitor herbicides” (Bayer CropScience AG, priority 2009, dated 2014)
